Structures can show the parent of a compound that is named as a salt. Where two headings read alike, the source gives them in different places.
Columns and labels:
[1] = target: T1, cyclic oxygenase (Ovis aries, UniProt P05979); assay: effect on biosynthesis of prostaglandins: activity of cyclic oxygenase, oxygen consumption with arachidonic acid substrate (Clark electrode); type: biochemical, sheep; details: for AC50: concentration for 50% increase in oxygen consumption; for EC (100% increase): concentration for 100% increase in oxygen consumption, read-out: AC100%
T1 construct: As an enzyme source a homogenizate of sheep spermatocele; from tissue; host or cells: homogenate of sheep 'spermatocele' (read as seminal vesicle)
T1 sequence (P05979 25-600): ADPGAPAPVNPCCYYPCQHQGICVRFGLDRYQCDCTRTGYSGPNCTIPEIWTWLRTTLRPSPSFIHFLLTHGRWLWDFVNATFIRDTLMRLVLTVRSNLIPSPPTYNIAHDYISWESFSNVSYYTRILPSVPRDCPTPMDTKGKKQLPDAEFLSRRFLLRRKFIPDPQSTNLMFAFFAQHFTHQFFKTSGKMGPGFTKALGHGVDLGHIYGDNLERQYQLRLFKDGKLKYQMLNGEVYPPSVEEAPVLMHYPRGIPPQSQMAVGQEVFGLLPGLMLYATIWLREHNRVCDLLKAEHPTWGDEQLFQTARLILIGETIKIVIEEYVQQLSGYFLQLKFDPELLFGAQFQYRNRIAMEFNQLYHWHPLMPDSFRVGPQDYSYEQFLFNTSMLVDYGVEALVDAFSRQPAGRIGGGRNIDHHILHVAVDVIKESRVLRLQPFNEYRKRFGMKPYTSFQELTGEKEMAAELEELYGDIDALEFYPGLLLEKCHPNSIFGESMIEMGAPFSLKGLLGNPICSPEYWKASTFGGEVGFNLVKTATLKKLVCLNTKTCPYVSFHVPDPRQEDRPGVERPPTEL
Procedure: The effect of the compounds of the formula (I) on the biosynthesis of prostaglandins was determined by a known technique (J. Biol. Chem., 246, 6700; 1971). As an enzyme source a homogenizate of sheep spermatocele and as a substrate arachidonic acid were used. The transformation of the substrate, which involves oxygen consumption, was monitored on the basis of the change of the concentration of dissolved oxygen, which was measured by a Clark electrode. During the measurements the concentration of the active compounds, which involved a 50% and 100%, respectively, […] in the oxygen consumption were determined. The concentrations were expressed in μM/lit. The results obtained are contained in the Table below. |The effect of the compounds of the formula |(I) on the activity of cyclic oxygenase |Substrate: arachidonic acid

[2] = test system: paw oedema; assay: antiinflammatory activity, carrageenien-induced paw oedema on rats; type: in vivo
Procedure: The diuretic activity of the compounds of the formula (I) was tested on rats. The quantity of the urine passed in 4 hours and of the discharged Na^+ and K^+ ions were determined by known methods (Arzneimitt. Forsch. 27, 559; 1978). The antiinflammatory activity was tested in paw oedema on rats. The oedema was induced by […] inhibition was expressed in %.

[3] = acute toxicity (LD50) on mice; details: mouse, in vivo, po
[4] = test system: isolated trachea of guinea pigs; assay: relaxant activity on isolated trachea of guinea pigs; details: for relaxant effect relative to theophylline: 1 μg/ml. dose; for relaxant activity relative to theophylline: related to a 95 to 100% relaxation
Procedure: According to a test carried out on isolated trachea of guinea pigs (J. Pharm. Pharmac. 31, 798; 1979) the compounds prepared according to the invention have a relaxant activity. […] The activity of the compounds obtained in Example 4 is significant also at a dose of 0.1 μg/ml.

[5] = test system: acetylcholine; assay: antagonistic activity against acetylcholine on ileum of guinea pigs
[6] = test system: histamine; assay: antagonistic activity against histamine on ileum of guinea pigs; details: for effect against histamine relative to theophylline: 50 μg/ml. antagonistic dose
[7] = test system: serotonine; assay: serotonine antagonistic effect on gastric fundus strip of rats; details: 10 μg/ml. antagonistic dose
[8] = diuretic activity on rats, quantity of urine passed in 4 hours; type: in vivo; details: 2 mg/kg. dose, compared with 2 mg/kg. p.o. Hypothiazid
Procedure: The diuretic activity of the compounds of the formula (I) was tested on rats. The quantity of the urine passed in 4 hours and of the discharged Na^+ and K^+ ions were determined by known methods (Arzneimitt. Forsch. 27, 559; 1978). The antiinflammatory activity was tested in paw oedema on rats. The oedema was induced by carrageenien and the inhibition was expressed in %.

Question: For `COc1cc2c(cc1OC)C(C(C#N)SCCO)=NCC2` (stereo not drawn) [Example 3, α-(2-hydroxy-ethylmercapto)-6,7-dimethoxy-3,4-dihydro-1-isoquinolyl-acetonitrile], which AC50 [1] is on record?
Answer: 100 µM

Question: And the EC (100% increase) [1]?
Answer: 200 µM

Question: And the “inhibition in paw oedema test” value ([2]; 100 mg/kg dose, rats (route not given))?
Answer: 20%

Question: And the LD50 ([3]; per os on mice, read-out: DL)?
Answer: > 500 mg/kg

Question: Which AC50 [1] does the source give for `COc1cc2c(cc1OC)C(C(C#N)SCCCO)=NCC2` (stereo not drawn) [Example 4, α-(3-hydroxy-propylmercapto)-6,7-dimethoxy-3,4-dihydro-1-isoquinolyl-acetonitrile] here?
Answer: 70 µM

Question: What about the EC (100% increase) [1] of the same compound?
Answer: 140 µM

Question: What about the “inhibition in paw oedema test” value ([2]; 100 mg/kg. p.o. dose, rats) of the same compound?
Answer: 20%

Question: What about the “relaxant effect relative to theophylline” value [4] of the same compound?
Answer: five-times more effective than theophylline

Question: And the relaxant activity ([4]; dose of 0.1 μg/ml.)?
Answer: significant

Question: And the “relaxant activity relative to theophylline” value [4]?
Answer: five-times higher activity than theophylline

Question: And the “activity against acetylcholine relative to theophylline” value ([5]; 50 μg/ml. antagonistic dose)?
Answer: six-times more active

Question: And the “maximum inhibition (acetylcholine)” value ([5]; in a dose of 50 μg/ml.)?
Answer: 100%

Question: And the “maximum inhibition (histamine)” value ([6]; 50 μg/ml.)?
Answer: 100%

Question: And the “effect against histamine relative to theophylline” value [6]?
Answer: six-times more potent

Question: What about the “inhibition (serotonine antagonistic effect)” value [7] of the same compound?
Answer: 80%

Question: What about the LD50 ([3]; p.o. on mice, read-out: LD50) of the same compound?
Answer: > 500 mg/kg

Question: With `N#CC(SCC(=O)O)C1=NCCc2ccccc21` (stereo not drawn) [Example 5, α-carboxy-methyl-mercapto-3,4-dihydro-isoquinolyl-acetonitrile] as the compound, how does the AC50 [1] read?
Answer: 40 µM

Question: And the EC (100% increase) [1]?
Answer: 80 µM

Question: What does the source list for `COc1cc2c(cc1OC)C(C(C#N)SCC(=O)O)=NCC2` (stereo not drawn) [Example 6, α-carboxymethylmercapto-6,7-dimethoxy-3,4-l-dihydro-1-isoquinolyl-acetonitrile]?
Answer: AC50 [1]: 60 µM; EC (100% increase) [1]: 225 µM; increase of the quantity of the urine secreted [8]: to the same extent as a 2 mg/kg. p.o. dose of Hypothiazid; inhibition (serotonine antagonistic effect) [7]: 16%; LD50 ([3]; p.o. on mice, read-out: LD50): > 500 mg/kg

Question: Which results are given for `N#CC(SCCC(=O)O)C1=NCCc2ccccc21` (stereo not drawn) [Example 8, α-(2-carboxyethyl)-mercapto-3,4-dihydro-1-isoquinolyl-acetonitrile]?
Answer: AC50 [1]: 48 µM; EC (100% increase) [1]: 96 µM; inhibition (serotonine antagonistic effect) [7]: 8%

Question: For `COc1cc2c(cc1OC)C(C(C#N)SCCC(=O)O)=NCC2` (centres unmarked) [Example 9], which AC50 [1] is on record?
Answer: 95 µM

Question: And the “increase of the quantity of the urine secreted” value [8]?
Answer: to the same extent as a 2 mg/kg. p.o. dose of Hypothiazid

Question: What about the “relaxant effect relative to theophylline” value [4] of the same compound?
Answer: only half of its effect

Question: And the “relaxant activity relative to theophylline” value [4]?
Answer: the same activity as theophylline

Question: And the “activity against acetylcholine relative to theophylline” value ([5]; 50 μg/ml. antagonistic dose)?
Answer: the same activity

Question: What about the “maximum inhibition (acetylcholine)” value ([5]; in a dose of 100 μg/ml.) of the same compound?
Answer: 55%

Question: What about the “effect against histamine relative to theophylline” value [6] of the same compound?
Answer: the same effect as theophylline

Question: And the “maximum inhibition (histamine)” value ([6]; 100 μg/ml.)?
Answer: 26%

Question: What about the LD50 ([3]; p.o. on mice, read-out: LD50) of the same compound?
Answer: > 500 mg/kg

Question: With `COc1cc2c(cc1OC)C(C(C#N)SC(C)C(=O)O)=NCC2` (stereo not drawn) [Example 12, α-(1-carboxy-1-ethyl)-mercapto-6,7-dimethoxy-3,4-dihydro-1-isoquinolyl-acetonitrile] as the compound, how does the AC50 [1] read?
Answer: 105 µM

Question: With `CCN(CC)CCSC(C#N)C1=NCCc2cc(OC)c(OC)cc21` (stereo not drawn) [Example 14, α-(2-diethylaminoethyl)-mercapto-6,7-dimethoxy-3,4-dihydro-1-isoquinolyl-acetonitrile hydrochloride] as the compound, how does the AC50 [1] read?
Answer: 280 µM

Question: And the EC (100% increase) [1]?
Answer: 395 µM

Question: Which AC50 [1] does the source give for `COc1cc2c(cc1OC)C(C(C#N)SCCN(C)C)=NCC2` (stereo not drawn) [Example 15, α-(2-dimethylaminoethyl)-mercapto-6,7-dimethoxy-3,4-dihydro-1-isoquinolyl-acetonitrile hydrochloride] here?
Answer: 62 µM

Question: And the EC (100% increase) [1]?
Answer: 124 µM

Question: Which results are given for `CCOC(=O)CSC(C#N)C1=NCCc2cc(OC)c(OC)cc21` (stereo not drawn) [Example 18, α(ethoxycarbonyl)-methyl-mercapto-6,7-dimethoxy-3,4dihydro-1-isoquinolyl-acetonitrile]?
Answer: AC50 [1]: 69 µM; EC (100% increase) [1]: 138 µM

Question: Which AC50 [1] does the source give for `COc1cc2c(cc1OC)C(C(C#N)SCC(=O)NN)=NCC2` (stereo not drawn) [Example 22, α-(carbohydrazidomethyl)-mercapto-6,7-dimethoxy-3,4-dihydro-1-isoquinolyl-acetonitrile] here?
Answer: 720 µM

Question: What about the EC (100% increase) [1] of the same compound?
Answer: 1800 µM

Question: Which results are given for `Cn1c(=O)c2[nH]cnc2n(C)c1=O` [theophylline, reference compound]?
Answer: inhibition against acetylcholine ([5]; 50 μg/ml. antagonistic dose): 16%; maximum inhibition (acetylcholine) ([5]; at a dose of 200 μg/ml.): 30%; inhibition (serotonine antagonistic effect) [7]: 8%

From USRE32519E, “Sulfur-containing isoquinoline derivatives, process for the preparation thereof and pharmaceutical compositions containing them” (Chinoin Gyogyszer es Vegyeszeti Termekek Gyara, priority 1979, dated 1987)
